Some test systems named below: SNB-19 CNS; NCI-H23 lung; UO-31 renal; RXF 393 renal; A498 renal; MCF7 breast; KM12 colon; RPMI-8226 leukemia; NCI/ADR-RES ovarian; SR leukemia.
Common to all, as to test: DTP human tumour cell line panel, 48 h

Where “and” joins values, the source holds several entries; their conditions need not be identical. Equal values may be shown once.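 Assay format: 96-well plates, 48-hour exposure. GI50 is the concentration that inhibits growth by half. TGI is the concentration that stops growth completely.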 A value given as a limit tells only on which side of the number the result lay.

Broadly, the TGI is the concentration giving total growth inhibition. The low end stands for more potent growth arrest, the high end for less potent growth arrest. With `C[C@]12CCC3=NCCN3C1=CC[C@@H]1[C@@H]2CC[C@@]2(C)[C@H]1CC[C@]2(C)O`, the TGI is more than 100 µM in the experiment on SNB-19 CNS; more than 100 µM in the experiment with NCI-H23 lung; more than 100 µM in the experiment with UO-31 renal; 66.4 µM in the experiment on RXF 393 renal; 77.6 µM with A498 renal; more than 100 µM in the experiment on MCF7 breast. Besides, the TGI in the experiment with KM12 colon is more than 100 µM; with RPMI-8226 leukemia, 70.8 µM; in the experiment with NCI/ADR-RES ovarian, more than 100 µM; with SR leukemia, more than 100 µM.

What is called GI50 is the concentration giving 50% growth inhibition. As to `COC(=O)[C@H](Cc1cn(C)cn1)NC(=O)[C@@H](NC(=O)Nc1cc(C(F)(F)F)cc(C(F)(F)F)c1)C(C)C`, the GI50 in the experiment with SNB-19 CNS was 6.71 µM; in the experiment with NCI-H23 lung, 4.6 µM; in the experiment on UO-31 renal, more than 10 µM; in the experiment with RXF 393 renal it was 1.96 µM; in the experiment on A498 renal, more than 10 µM; in the experiment with MCF7 breast, 1.98 µM. Moreover, the GI50 in the experiment with KM12 colon is 1.98 µM; in the experiment with RPMI-8226 leukemia it was 3.03 µM; with NCI/ADR-RES ovarian, more than 10 µM; in the experiment with SR leukemia it was 3.08 µM. Further, the concentration for total growth inhibition (TGI) in the experiment with SNB-19 CNS is more than 10 µM; with NCI-H23 lung it was more than 10 µM; in the experiment with UO-31 renal it was more than 10 µM; in the experiment with RXF 393 renal, 4.08 µM; with A498 renal, more than 10 µM; in the experiment with MCF7 breast it was 4.67 µM. In addition, the concentration for total growth inhibition (TGI) in the experiment with KM12 colon was 4.22 µM; in the experiment on RPMI-8226 leukemia, more than 10 µM; in the experiment with NCI/ADR-RES ovarian, more than 10 µM; in the experiment with SR leukemia, more than 10 µM.

For the compound `O=C(Oc1ccc2c(c1)CN(Cc1ccccc1)CO2)c1ccccc1`, the total growth inhibition concentration (TGI) with SNB-19 CNS turned out to be 34.1 µM; in the experiment with NCI-H23 lung it was 30 µM; in the experiment on UO-31 renal it was 31.8 µM; with RXF 393 renal it was 30.4 µM; in the experiment with A498 renal it was 31.7 µM; in the experiment with MCF7 breast, 32.7 µM. The TGI in the experiment with KM12 colon came out at 44.7 µM; in the experiment on RPMI-8226 leukemia, 52.7 µM; with NCI/ADR-RES ovarian, 59.3 µM; in the experiment with SR leukemia, 69.2 µM.

Take `Fc1ccc(-c2nn3c(COc4ccc(Cl)cc4)nnc3s2)cc1Oc1ccccc1`: the GI50 is 30.2 µM in the experiment with SNB-19 CNS; 20.4 µM in the experiment with NCI-H23 lung; 24.4 µM with UO-31 renal; 26.3 µM in the experiment on RXF 393 renal; 15.3 µM with A498 renal; 21.9 µM in the experiment with MCF7 breast. For the same compound, the GI50 is 40.8 µM with KM12 colon, 13.9 µM in the experiment with RPMI-8226 leukemia, 30.5 µM with NCI/ADR-RES ovarian and more than 100 µM in the experiment with SR leukemia. Moreover, the total growth inhibition concentration (TGI) is more than 58.5 µM in the experiment with SNB-19 CNS; 40.2 µM in the experiment on NCI-H23 lung; more than 100 µM in the experiment with UO-31 renal; 87.5 µM in the experiment on RXF 393 renal; 51.8 µM in the experiment with A498 renal; more than 48.3 µM in the experiment on MCF7 breast. Besides, the TGI with KM12 colon is more than 100 µM; in the experiment with RPMI-8226 leukemia, 29 µM; with NCI/ADR-RES ovarian, 95.5 µM; with SR leukemia it was more than 100 µM.

Consider `Cc1ccnc(Nc2ccc([N+](=O)[O-])c(NCCN3CCOCC3)n2)c1`, for which the GI50 is 0.0312 µM in the experiment with SNB-19 CNS; 0.0352 µM and 0.0156 µM in the experiment with NCI-H23 lung; 0.0461 µM in the experiment with UO-31 renal; 0.00325 µM with A498 renal; 0.00334 µM in the experiment on MCF7 breast; 0.00464 µM with KM12 colon. The GI50 in the experiment with RPMI-8226 leukemia is 0.0212 µM and 0.0269 µM; in the experiment on NCI/ADR-RES ovarian, 0.00429 µM; in the experiment on SR leukemia, 0.00376 µM. The TGI with NCI-H23 lung was found to be 40.8 µM; in the experiment with UO-31 renal, 30.7 µM; in the experiment on A498 renal, 0.22 µM; in the experiment on MCF7 breast it was 20.5 µM; in the experiment with RPMI-8226 leukemia, 24.5 µM; in the experiment with SR leukemia, 63.5 µM.

Turning to `O=c1[nH]c2ccc([N+](=O)[O-])c(Cl)c2c2ccccc12`, the TGI was found to be 10.5 µM in the experiment on SNB-19 CNS; 24.7 µM in the experiment with NCI-H23 lung; 21.2 µM with UO-31 renal; 80.2 µM in the experiment on A498 renal; 2.23 µM in the experiment on MCF7 breast; 4.52 µM in the experiment on KM12 colon. Besides, the concentration for total growth inhibition (TGI) with RPMI-8226 leukemia is 33.7 µM; in the experiment with NCI/ADR-RES ovarian it was more than 100 µM; in the experiment on SR leukemia, 7.59 µM.

On to `COc1ccc(OCC(O)CN2CCN(c3ccc(Cl)cc3)CC2)cc1` (centres undefined), for which the GI50 is 77.7 µM in the experiment on SNB-19 CNS; more than 100 µM in the experiment with NCI-H23 lung; 79.1 µM in the experiment on RXF 393 renal; more than 100 µM in the experiment with A498 renal; more than 100 µM with MCF7 breast; more than 100 µM in the experiment with KM12 colon. For the same compound, the GI50 in the experiment with RPMI-8226 leukemia, with NCI/ADR-RES ovarian and in the experiment with SR leukemia was more than 100 µM in each case. Also, the TGI in the experiment with SNB-19 CNS, with NCI-H23 lung, in the experiment on RXF 393 renal, in the experiment on A498 renal, with MCF7 breast and in the experiment on KM12 colon was more than 100 µM each time. Further, the TGI with RPMI-8226 leukemia, in the experiment on NCI/ADR-RES ovarian and in the experiment on SR leukemia was more than 100 µM each time.

On to `O=C(OC[C@@H]1CO1)c1cccc2c(=O)c3ccccc3[nH]c12`, for which the GI50 is 0.505 µM with SNB-19 CNS; 0.288 µM with NCI-H23 lung; 0.207 µM with RXF 393 renal; 1.76 µM with A498 renal; 0.0469 µM in the experiment with MCF7 breast; 0.245 µM in the experiment with KM12 colon. Also, the results for the GI50 in the experiment with RPMI-8226 leukemia, with NCI/ADR-RES ovarian and in the experiment on SR leukemia were 0.33 µM, 0.253 µM and 0.0604 µM, respectively. For the same compound, the TGI with SNB-19 CNS was 5.51 µM; with NCI-H23 lung it was 1.25 µM; with RXF 393 renal, 0.515 µM; in the experiment on A498 renal it was 3.56 µM; with MCF7 breast it was 0.642 µM; in the experiment on KM12 colon it was 0.771 µM. For the same compound, the TGI was found to be 1.84 µM in the experiment with RPMI-8226 leukemia and 2.08 µM with NCI/ADR-RES ovarian.

The values are drawn from PubChem BioAssay (NCI).
